# The supplement of paper PMC10307832
# What was measured:
# Experiment in all cases: relative viability (nuclei count vs DMSO), 5 days (fraction); higher = more cells survive
# Dinaciclib + Linsitinib = compound: CCc1cnn2c(NCc3ccc[n+]([O-])c3)cc(N3CCCC[C@H]3CCO)nc12 [Dinaciclib] + C[C@]1(O)C[C@@H](c2nc(-c3ccc4ccc(-c5ccccc5)nc4c3)c3c(N)nccn32)C1 [Linsitinib] (partner 1 µM)
# In short: (§1)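 Five library-drug doses in √10 steps were combined with a fixed anchor-drug dose, or a single drug was given alone, by pin tool to lung cancer cell lines in 1536-well plates the day after seeding. Nuclei were stained and counted after 5 days. Relative viability is the nuclei count in treated wells over that in vehicle wells, taken as the median of duplicate plates.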
# Dinaciclib + Tozasertib = compound: CCc1cnn2c(NCc3ccc[n+]([O-])c3)cc(N3CCCC[C@H]3CCO)nc12 [Dinaciclib] + Cc1cc(Nc2cc(N3CCN(C)CC3)nc(Sc3ccc(NC(=O)C4CC4)cc3)n2)n[nH]1 [Tozasertib] (partner 0.1 µM)
# In short: as §1
# Dinaciclib + Dasatinib = compound: CCc1cnn2c(NCc3ccc[n+]([O-])c3)cc(N3CCCC[C@H]3CCO)nc12 [Dinaciclib] + Cc1nc(Nc2ncc(C(=O)Nc3c(C)cccc3Cl)s2)cc(N2CCN(CCO)CC2)n1 [Dasatinib] (partner 0.075 µM)
# In short: as §1
# Dinaciclib + Vorinostat = compound: CCc1cnn2c(NCc3ccc[n+]([O-])c3)cc(N3CCCC[C@H]3CCO)nc12 [Dinaciclib] + O=C(CCCCCCC(=O)Nc1ccccc1)NO [Vorinostat] (partner 1 µM)
# In short: as §1
# Dinaciclib + Olaparib = compound: CCc1cnn2c(NCc3ccc[n+]([O-])c3)cc(N3CCCC[C@H]3CCO)nc12 [Dinaciclib] + O=C(c1cc(Cc2n[nH]c(=O)c3ccccc23)ccc1F)N1CCN(C(=O)C2CC2)CC1 [Olaparib] (partner 8 µM)
# In short: as §1
Cell Line,relative viability (Dinaciclib + Linsitinib; first compound 0.009487 µM),relative viability (Dinaciclib + Linsitinib; first compound 0.03 µM),relative viability (Dinaciclib + Linsitinib; first compound 0.09487 µM),relative viability (Dinaciclib + Linsitinib; first compound 0.3 µM),relative viability (Dinaciclib + Tozasertib; first compound 0.009487 µM),relative viability (Dinaciclib + Tozasertib; first compound 0.03 µM),relative viability (Dinaciclib + Tozasertib; first compound 0.09487 µM),relative viability (Dinaciclib + Tozasertib; first compound 0.3 µM),relative viability (Dinaciclib + Dasatinib; first compound 0.009487 µM),relative viability (Dinaciclib + Dasatinib; first compound 0.03 µM),relative viability (Dinaciclib + Dasatinib; first compound 0.09487 µM),relative viability (Dinaciclib + Dasatinib; first compound 0.3 µM),relative viability (Dinaciclib + Vorinostat; first compound 0.009487 µM),relative viability (Dinaciclib + Vorinostat; first compound 0.03 µM),relative viability (Dinaciclib + Vorinostat; first compound 0.09487 µM),relative viability (Dinaciclib + Vorinostat; first compound 0.3 µM),relative viability (Dinaciclib + Olaparib; first compound 0.009487 µM),relative viability (Dinaciclib + Olaparib; first compound 0.03 µM),relative viability (Dinaciclib + Olaparib; first compound 0.09487 µM),relative viability (Dinaciclib + Olaparib; first compound 0.3 µM)
LK-2,0.523,0.127,0.159,0.117,0.2,0.154,0.151,0.168,0.267,0.141,0.115,0.144,0.251,0.152,0.148,0.161,0.615,0.0883,0.0805,0.0778
LOU-NH91,0.94,0.467,0.236,0.245,0.656,0.305,0.178,0.174,0.564,0.287,0.243,0.179,0.825,0.286,0.241,0.275,0.861,0.269,0.239,0.234
LU99A,0.336,0.154,0.145,0.141,0.247,0.142,0.143,0.148,0.514,0.142,0.115,0.124,0.332,0.119,0.0932,0.109,0.199,0.112,0.117,0.125
LXF-289,0.994,0.315,0.0869,0.071,0.183,0.149,0.0561,0.0572,0.282,0.0717,0.0492,0.0472,0.813,0.257,0.0809,0.0855,1.01,0.103,0.0785,0.0985
NCI-H23,0.508,0.142,0.105,0.109,0.246,0.131,0.116,0.13,0.647,0.249,0.0991,0.114,0.512,0.143,0.104,0.122,0.206,0.12,0.0827,0.101
NCI-H322M,0.925,0.477,0.224,0.229,0.417,0.263,0.303,0.259,0.248,0.248,0.247,0.28,0.898,0.396,0.347,0.399,0.652,0.304,0.328,0.321
NCI-H358,0.552,0.149,0.185,0.176,0.103,0.0813,0.0924,0.0857,0.182,0.0918,0.0845,0.0762,0.339,0.0713,0.0813,0.0842,0.552,0.0825,0.086,0.105
NCI-H441,0.811,0.129,0.115,0.113,0.603,0.223,0.23,0.175,0.562,0.186,0.146,0.144,1.07,0.34,0.174,0.131,0.432,0.141,0.125,0.127
NCI-H460,0.434,0.0071,0.0074,0.0155,0.489,0.0458,0.015,0.0209,0.453,0.0263,0.0179,0.021,0.57,0.0214,0.0191,0.0236,0.409,0.0325,0.0396,0.0408
NCI-H520,0.615,0.128,0.129,0.177,0.473,0.201,0.181,0.208,0.201,0.151,0.165,0.155,0.531,0.153,0.15,0.138,0.259,0.117,0.101,0.114
NCI-H596,0.847,0.468,0.169,0.193,0.853,0.456,0.176,0.164,0.675,0.643,0.232,0.178,0.629,0.613,0.252,0.158,0.699,0.522,0.222,0.202
NCI-H647,0.674,0.0709,0.0658,0.0602,0.21,0.0983,0.0486,0.0487,0.104,0.0306,0.0319,0.042,0.494,0.079,0.0693,0.0788,0.258,0.0359,0.0547,0.051
NCI-H650,0.481,0.161,0.139,0.124,0.493,0.183,0.154,0.153,0.36,0.169,0.154,0.164,0.336,0.146,0.129,0.157,0.382,0.13,0.12,0.104
NCI-H661,0.452,0.184,0.144,0.2,0.339,0.183,0.199,0.18,0.38,0.144,0.17,0.132,0.804,0.235,0.211,0.211,0.664,0.227,0.148,0.147
NCI-H727,0.268,0.193,0.0908,0.158,0.538,0.287,0.276,0.282,0.344,0.263,0.209,0.325,1.33,1.15,0.362,0.312,0.782,0.314,0.351,0.328
